{
  "source": "patent US9376421B2",
  "about": "“Compounds and methods for myotonic dystrophy therapy” (The Board of Trustees of the University of Illinois, priority 2014, dated 2016)",
  "key": {"[1]": {"tested_on": "SV40 terminator mRNA in i(CUG)480 larvae", "assay": "SV40 mRNA level in i(CUG)480 larvae (real-time PCR)", "type": "in vivo, Drosophila", "details": "relative to actin RNA"}, "[2]": {"tested_on": "cTNT minigene splicing", "details": "DM1 model cell cultures; cited from earlier work"}, "[3]": {"tested_on": "DM1 Drosophila expressing i(CTG)480", "assay": "External eye assay in DM1 Drosophila", "type": "in vivo", "quoted_text": "Drosophila lines were cultured in standard cornmeal medium supplemented with dry yeasts. […] The gmr-GAL4 and 24B-GAL4 lines were used to drive UAS transgene expression in eye and muscles respectively. Ligands 2 and 9 were dissolved in ddH2O and mixed with fly food. Genetic crosses were set up in drug-containing fly food at 21.5° C. for external eye assay, and at 25° C. for larval crawling assay and real-time PCR analysis."}, "[4]": {"tested_on": "cells", "details": "cited from earlier work"}, "[5]": {"tested_on": "(CUG)16", "assay": "(CUG)16 cleavage screening gel assay", "type": "biochemical", "details": "ligand 100 μM, (CUG)16 100 nM, 12 h, pH 7.4, 37° C., EtBr stain", "protocol": "FIG. 2. Cleavage screening gel. (CUG)16 (SEQ ID NO: 1) (100 nM) was incubated with ligands (100 μM) and (CUG)16 (SEQ ID NO: 1) (100 nM), 12 h, 37° C. The reaction mixture was loaded onto a 20% denaturing PAGE gel and RNA was detected by post-staining with EtBr.\nThe potential cleavage activity of 4-9 was screened using a simple gel shift assay with (CUG)16 (SEQ ID NO: 1). To screen the agents, each agent was incubated for 12 h with unlabeled (CUG)16 (SEQ ID NO: 1) at a final concentration of 100 μM at pH 7.4. The mixture was separated on an RNA denaturing gel and stained with EtBr (FIG. 2). No loss of (CUG)16 (SEQ ID NO: 1) intensity was observed upon treatment with 2, 7, or tris(2-aminoethyl)amine (10).\nRNA was fast folded at 95° C. for 5 min, followed by placing in ice for 10 min. RNA with a final concentration of 100 nM was incubated with cleaving agents 100 μM (in screening assays) and with ligand 9 at different concentrations (5, 10, 50, 100 μM). The cleaving buffer was 50 mM Tris buffer (pH 7.4) containing 150 mM NaCl and 2 mM MgCl2. The final volume of the reaction mixture was 10 μL. The reaction was quenched by adding 8 μL of 8 M urea and 2 μL of RNA loading dye followed by heating at 95° C. for 5 min. The mixture was separated on a 20% RNA denaturing gel. For non-labeled RNA, the gel was stained with EtBr and observed under UV. […]"}, "[6]": {"tested_on": "d(CAG)12", "assay": "Isothermal titration calorimetry, d(CAG)12", "type": "binding", "details": "25° C., 20 mM MOPS pH 7.0, 300 mM NaCl", "protocol": "To directly assess the DNA-targeting ability of 9, ITC experiments were performed with oligonucleotide analogs of the various trinucleotide repeat sequences (Table 1). […] This supports the idea that 9 inhibits the transcription of CTG^exp by stabilizing its hairpin structure. […] The in vitro transcription experiment using (CTG[…]CAG)74 (SEQ ID NOS 3-4, respectively) and compounds 2, 5-7, and 9 was repeated but with (CUG)16 (SEQ ID NO: 1) added as a competitor.\nIsothermal titration calorimetry (ITC) measurements were performed at 25° C. on a MicroCal VP-ITC (MicroCal, Inc., Northampton, Mass.). A standard experiment consisted of titrating 10 μL of a 500 μM ligand solution from a […] syringe (rotating at 300 rpm) into a sample cell containing 1.42 mL of a 10 μM DNA or RNA solution. An ITC experiment consisted of 28 total injections (first injection was 5 μL, subsequent injections were 10 μL), with a 10 s duration per injection and delay of 380 s between injections. The initial delay prior to the first injection was 300 s. To derive the heat associated with each injection, the area under each isotherm (microcalories per second versus seconds) was determined by integration by the graphing program Origin 7.0 (MicroCal, Inc. Northampton, Mass.). […]"}, "[7]": {"tested_on": "MBNL1-CUGexp nuclear foci in HeLa cells transfected with GFP-DT960", "details": "DM1 model cell cultures; cited from earlier work"}, "[8]": {"details": "cited from earlier work"}, "[9]": {"tested_on": "(CUG)n", "assay": "Ligand-RNA binding affinity, (CUG)n", "text": "Off target activity is a concern for any therapeutic agent but especially one designed to cleave RNA. To test the selectivity of agents 6 and 9, the screening gel assay described above was applied to other RNA targets, specifically cTNT32, (CCUG)8 (SEQ ID NO: 11), and HIV-1 frameshift site RNA (HIV FS) (FIG. 5a). Both 6 and 9 were quite selective. […] Thus, both similarly adopt stem-loop structures with internal loops within the stem, although obviously of different sequences. Differences between 6 and 9 were observed (FIG. 5) with the former cleaving (CCUG)8 (SEQ ID NO: 11), the toxic RNA involved in myotonic dystrophy type 2 (DM2). […] The ability to process the RNA directly parallels the corresponding ligand-RNA binding affinities. Thus, 1, which contains the acridine-triazine core of agent 6, complexes the (CCUG)6 (SEQ ID NO: 12) and (CUG)n sequences."}},
  "note": "Entries after “also recorded” stand apart in the source; their conditions may differ.",
  "data": [
    {"compound": "N=C(NCCCCNc1nc(N)nc(N)n1)c1ccc(C(=N)NCCCCNc2nc(N)nc(N)n2)cc1", "note": "[Ligand 2]", "values": [
      {"measurement": "reduction of SV40 mRNA levels in i(CUG)480 larvae", "setting": "[1]", "value": "did not"},
      {"measurement": "rescue of splicing defect of cTNT minigene (earlier work)", "setting": "[2]", "value": "partially rescued"},
      {"measurement": "disease phenotype in DM1 fly eyes at 200 μM", "setting": "[3]; 200 μM", "value": "reversed the disease phenotype"},
      {"measurement": "neurodegenerative (glossy and rough-eye) phenotype", "setting": "[3]; in fly food, 6 d", "value": "reversal of the disease phenotype but less effectively; also recorded: improved the neurodegeneration"},
      {"measurement": "cell permeability / cell uptake", "setting": "[4]", "value": "better cell uptake"},
      {"measurement": "loss of (CUG)16 intensity (RNA cleavage)", "setting": "[5]", "value": "No loss"},
      {"measurement": "binding affinity toward d(CAG)12 by ITC", "setting": "[6]", "value": "lack of binding affinity"},
      {"measurement": "dissolution of MBNL1-CUGexp nuclear foci (earlier work)", "setting": "[7]", "value": "dissolved the MBNL1-CUG^exp nuclear foci"},
      {"measurement": "water solubility in comparison to 1", "setting": "[8]", "value": "higher water solubility"},
      {"measurement": "complexation of (CUG)n", "setting": "[9]", "value": "complexes"}
    ]}
  ]
}
